Laboratory results taken from patent US10716750B2, “Topical ophthalmic formulations of endothelin receptor antagonists” (Retinset, S.L., priority 2015, dated 2020).
Entries after “also recorded” stand apart in the source; their conditions may differ.

Tests used:
[1] = tested on: diabetic mice (db/db); test: Determination of glial activation (GFAP staining score, confocal microscopy of retina sections) after topical ocular treatment; type: in vivo
Description: (§1) In tests 12 male db/db mice aged 10 weeks (Harlan Laboratories, Inc.) were used, and were divided into two groups: 6 of these mice were treated with a formulation of the present invention, and 6 mice with a sodium chloride solution, as described below. 6 non-diabetic (db/+) mice matched by age were also used as the control group.
(§2) On day 15, approximately 1 hour before necropsy, a drop of formulation of the present invention or vehicle was instilled in the eyes of the animals. Following euthanasia, eyes were enucleated. The neuroretina from one of the eyes was extracted, frozen in liquid nitrogen and stored at a temperature of −80° C. The other eye was fixed with a solution of 4% paraformaldehyde, processed routinely, and embedded in paraffin blocks.
Glial activation was evaluated by Laser Scanning Confocal microscopy using specific antibodies against GFAP (glial fibrillary acidic protein). Retina sections were fixed in acidic methanol at −20° C. for 2 min, followed by three washes with phosphate buffer (PBS) for 5 min each. Retina sections were permeabilized with a tris buffer (TBS) with 0.025% Triton® X-100 and incubated for 2 hours at room temperature in a blocker solution composed of 1% BSA (serum albumin bovine) and 10% goat serum in 10% PBS. Retina sections were incubated with rabbit anti-GFAP antibody (Abcam Ltd, Cambridge, UK; 1:500 dilution prepared in blocking solution) overnight at 4° C. in a humid atmosphere. After three washes with PBS solution, 5 minutes each, the retina sections were incubated with the secondary antibody Alexa 488 goat anti-rabbit (Invitrogen, San Diego Calif., USA) at a 1:200 dilution prepared in blocking solution. Retina sections were washed three times with PBS, counterstained with Hoechst, mounted with Mounting Medium Fluorescence (Prolong, Invitrogen) and mounted with a coverslip. Comparative digital images from samples were recorded with FluoView FV 1000 Laser Scanning Confocal microscope Olympus using identical settings for brightness and contrast.
A scoring system based on the extent of GFAP staining described in Anderson et al., Glial and endothelial blood-retinal barrier responses to amyloid-β in the neural retina of the rat, Olin. Ophthalmol., 2008, 2, 801-816, was used in order to assess the degree of glial activation. This scoring system was as follows: • Score 1: Müller cell endfeet/ ganglion retinal cell layer (GCL) only; • Score 2: Müller cell endfeet region/GCL plus a few proximal processes; • Score 3: Müller cell endfeet plus many processes, but not extending to the outer nuclear layer (ONL) of the retina; • Score 4: Müller cell endfeet plus processes throughout with some in the ONL; • Score 5: Müller cell endfeet plus lots of dark processes from GCL to outer margin of ONL.
The score was assessed on the retina of each animal and a minimum of 10 sections per retina.

[2] = tested on: diabetic mice (db/db); test: Immunohistochemical evaluation of apoptosis (TUNEL staining of retina sections) after topical ocular treatment; type: in vivo
Description: as §1, §2
Immunohistochemical analysis for apoptosis assessment was carried out TUNEL (Terminal Transferase dUTP Nick-End Labeling) staining using the DeadEnd Fluorometric TUNEL System Kit (Promega, Madison, Wis., USA).
Cryosections of retina were permeabilized by incubation on ice for 2 min with 0.1% Triton X-100 and 0.1% sodium citrate freshly prepared solution. The secondary antibody was Alexa 488 goat anti-rabbit (Invitrogen, San Diego Calif., USA). For evaluation by Laser Scanning Confocal microscopy, the excitation wavelength was 488 nm and detection in the range from 515 to 565 nm, which corresponds to green colour.
The evaluation was carried out in the retina of each animal and a minimum of 10 sections per retina.

Question: How did the “glial activation / reactive gliosis (in words)” value ([1]; 14 days, twice per day, versus vehicle-treated diabetic animals) turn out when COc1ccccc1Oc1c(NS(=O)(=O)c2ccc(C(C)(C)C)cc2)nc(-c2ncccn2)nc1OCCO [Bosentan] was run?
Answer: The value was “significant decrease of reactive gliosis; also recorded: less glial activation”.

Question: What about the “degree of glial activation (percentage for each score of GFAP expression), Score 1” value ([1]; one 5 μl drop of formulation of Example 1 per eye, twice daily for 14 days, Score 1: Müller cell endfeet/GCL only) of the same compound?
Answer: The value was 85%.

Question: What about the “degree of glial activation (percentage for each score of GFAP expression), Score 2” value ([1]; one 5 μl drop of formulation of Example 1 per eye, twice daily for 14 days, Score 2: endfeet region/GCL plus a few proximal processes) of the same compound?
Answer: Its value is 15%.

Question: And the “degree of glial activation (percentage for each score of GFAP expression), Score 3” value ([1]; one 5 μl drop of formulation of Example 1 per eye, twice daily for 14 days, Score 3: endfeet plus many processes, not extending to ONL)?
Answer: The value was 0%.

Question: What about the “degree of glial activation (percentage for each score of GFAP expression), Score 4” value ([1]; one 5 μl drop of formulation of Example 1 per eye, twice daily for 14 days, Score 4: endfeet plus processes throughout with some in the ONL) of the same compound?
Answer: The value was 0%.

Question: And the “degree of glial activation (percentage for each score of GFAP expression), Score 5” value ([1]; one 5 μl drop of formulation of Example 1 per eye, twice daily for 14 days, Score 5: endfeet plus lots of dark processes from GCL to outer margin of ONL)?
Answer: Its value is 0%.

Question: And the “share with GFAP score less than 2” value ([1]; two weeks of administration)?
Answer: Its value is 85%.

Question: And the “GFAP score of the treated animals” value ([1]; two weeks of administration, all cases, score scale 1-5)?
Answer: Its value is under 3.

Question: What about the “apoptosis in all retinal layers (in words)” value ([2]; 14 days, twice per day, versus control (db/+) and vehicle-treated diabetic animals) of the same compound?
Answer: Its value is “reduced apoptosis”.

Question: And the “TUNEL staining-positive cell percentage, GCL, mean (standard deviation)” value ([2]; topical ocular, twice daily for 14 days, ganglion cell layer, p <0.001 vs vehicle)?
Answer: The value was 1.42 (0.38) %.

Question: And the “TUNEL staining-positive cell percentage, INL, mean (standard deviation)” value ([2]; topical ocular, twice daily for 14 days, inner nuclear layer, p <0.001 vs vehicle)?
Answer: The value was 0.36 (0.31) %.

Question: What about the “TUNEL staining-positive cell percentage, ONL, mean (standard deviation)” value ([2]; topical ocular, twice daily for 14 days, outer nuclear layer, p <0.001 vs vehicle) of the same compound?
Answer: The value was 0 (0.07) %.
